Assay results taken from patent publication US10280139B2, “Cytotoxic peptides and conjugates thereof” (priority 2014, dated 2019).
pIC50: −log10 of the molar value.

How the values were obtained:
Test in all cases: In vitro cell killing assay of compounds of Formula (I), Cell-Titer-Glo
Format in all cases: cell-based
[1] = tested on: CMK11-5 cells; details: Homo sapiens, CMK-11-5, 120 h; free compound, five days incubation
Protocol: (§1) For evaluation of the cell killing potency of the compounds of Formula (I) in vitro, cell proliferation assays were performed in parallel with 8 cell lines: MDA-MB231 clone 16, clone 40, JimT1, HCC1954, NCl-H526, KU812, CMK11-5 cells and Jurkat cells. […] The cell proliferation assays were conducted with Cell-Titer-Glo™ (Promega) five days after cells were incubated with various concentrations of the compound (Riss et al., (2004) Assay Drug Dev Technol. 2:51-62).

[2] = tested on: HCC1954; details: Homo sapiens, HCC1954, 120 h; free compound, five days incubation
Protocol: as §1

[3] = tested on: KU812; details: Homo sapiens, KU812, 120 h; free compound, five days incubation
Protocol: as §1

[4] = tested on: MDA-MB231 clone 16; details: Homo sapiens, MDA-MB-231, 120 h; free compound, five days incubation
Protocol: as §1

[5] = tested on: MDA-MB231 clone 40; details: Homo sapiens, MDA-MB-231, 120 h; free compound, five days incubation
Protocol: as §1

[6] = tested on: JimT1; details: Homo sapiens, JIMT-1, 120 h; free compound, five days incubation
Protocol: as §1

[7] = tested on: NCI-H526; details: Homo sapiens, NCI-H526, 120 h; free compound, five days incubation
Protocol: as §1

[8] = tested on: Jurkat cells; details: Homo sapiens, 120 h, free compound, five days incubation
Protocol: as §1

SMILES	pIC50 [1]	pIC50 [2]	pIC50 [3]	pIC50 [4]	pIC50 [5]	pIC50 [6]	pIC50 [7]	pIC50 [8]
CC[C@H](C)[C@@H]([C@@H](CC(=O)N1CCC[C@H]1[C@H](OC)[C@@H](C)C(=O)N[C@@H](Cc1ccccc1)C(=O)OC)OC)N(C)C(=O)[C@@H](NC(=O)N(C(C)C)C(C)C)C(C)C [FP-5, (S)-methyl-2-((2R,3R)-3-((S)-1-((3R,4S,5S)-4-((S)-2-(3,3-diisopropylureido)-N,3-dimethylbutanamido)-3-methoxy-5-methylheptanoyl)pyrrolidin-2-yl)-3-methoxy-2-methylpropanamido)-3-phenylpropanoate]	7.13	7.33	6.97	7.08	6.86	7.35	6.69	7.30
CC[C@H](C)[C@@H]([C@@H](CC(=O)N1CCC[C@H]1[C@H](OC)[C@@H](C)C(=O)N[C@@H](Cc1ccccc1)C(=O)NS(=O)(=O)CCCN=[N+]=[N-])OC)N(C)C(=O)[C@@H](N=C(N(C)C)N(C)C)C(C)C [FP-3, (S)-2-((bis(dimethylamino)methylene)amino)-1-(((3R,4S,5S)-1-((S)-2-((1R,2R)-3-(((S)-N-1-(3-azidopropylsulfonamido)-1-oxo-3-phenylpropan-2-yl)amino)-1-methoxy-2-methyl-3-oxopropyl)pyrrolidin-1-yl)-3-methoxy-5-methyl-1-oxoheptan-4-yl)(methyl)amino)-3-methyl-1-oxobutane]	7.83	7.97	8.17	7.90	7.62	7.38	7.66	8.52
CC[C@H](C)[C@@H]([C@@H](CC(=O)N1CCC[C@H]1[C@H](OC)[C@@H](C)C(=O)N[C@@H](Cc1ccccc1)C(=O)O)OC)N(C)C(=O)[C@@H](/N=C(\N(C)C)N(C)CCN(C)C(=O)CCCCCN1C(=O)C=CC1=O)C(C)C [NL-9, (S)-2-((2R,3R)-3-((S)-1-((3R,4S,7S,E)-4-((S)-sec-butyl)-9-(dimethylamino)-19-(2,5-dioxo-2,5-dihydro-1H-pyrrol-1-yl)-7-isopropyl-3-methoxy-5,10,13-trimethyl-6,14-dioxo-5,8,10,13-tetraazanonadec-8-en-1-oyl)pyrrolidin-2-yl)-3-methoxy-2-methylpropanamido)-3-phenylpropanoic acid]	7.98	8.64	8.08	8.09	7.93	7.85	7.53	8.21
